Key:
[1] = test system: Quarter-Udders in Pregnant Beef Cows; assay: Intramammary infusion of bIGF-I, quarter-udder weights and DNA (Examples 14-16); assay type: in vivo, cross-bred beef cows
Description: (§1) 24 pregnant, non-lactating, cross-bred beef cows within their last 40-80 days of gestation were housed in a free-stall facility, fed a ration of alfalfa hay and pelleted concentrate, and administered 10 ml of an excipient (a sesame oil emulsion of the kind used in Examples 4-6) into each half-udder by intramammary infusion through the streak canal on days 1, 3, 5, 7 and 9 of this study. The infusion technique, random assignment of half-udders to treatment or control, and treatment vs. control comparisons were as in Examples 1-2. In the treatment infusions, the excipient contained bovine insulin-like growth factor-I (bIGF-I) prepared by expression in E. coli (Prla Strain 079) of recombinant DNA coding for bIGF-I fused to the "lam" B cell wall protein signal sequence, secretion into the E. coli periplasmic space, and recovery/purification by conventional techniques including gel filtration, cation exchange and reverse-phase HPLC. This bIGF-I had the same amino acid sequence and secondary structure as the AMgen human IGF-I used in Example 20. In standard L6 myoblast assays, its activity was essentially the same (90-123%) as that of the Example 20 hIGF-I. The amounts of bIGF-I in each infusion were: Group 1-2.5 micrograms: Group 2-25 micrograms; Group 3-250 micrograms. Animals were prepared and infused, and their quarter-udder weights and DNA were determined as in Example 3-6.
When the procedures described for Groups 1-3 were repeated, results were essentially the same. Pooling results from the original study and its replication, it was determined that both treatment and control quarter-udders had grown as follows: […]

[2] = test system: L6 myoblast; assay: Standard L6 myoblast assays; assay type: cell-based
Description: as §1

[3] = Group 1: total of 12.5 micrograms bIGF-I
[4] = Group 1: total of 12.5 micrograms bIGF-I, sesame oil emulsion
[5] = Group 1: total of 12.5 micrograms bIGF-I, B = excipient only

## bIGF-I: bovine insulin-like growth factor-I prepared by expression in E. coli of recombinant DNA
[1]; [3]
  DNA, Avg % Increase/Animal: 12.5%
  Dry Fat-Free Weight, Avg % Increase/Animal: 16.0%
  Dry Weight, Avg % Increase/Animal: 8.8%
  Wet Weight, Avg % Increase/Animal: 11.0%
[1]; [4]
  DNA, Treatment Mean: 1307 mg
  Dry Fat-Free Weight, Treatment Mean: 54.9 g
  Dry Weight, Treatment Mean: 111.7 g
  Wet Weight, Treatment Mean: 408.4 g
[1]; [5]
  DNA, % Increase, (A-B)/B: 7.2%
  DNA, Mean Increase (A-B): 88 mg
  Dry Fat-Free Weight, % Increase, (A-B)/B: 14.2%
  Dry Fat-Free Weight, Mean Increase (A-B): 6.9 g
  Dry Weight, % Increase, (A-B)/B: 8.7%
  Dry Weight, Mean Increase (A-B): 9.0 g
  Wet Weight, % Increase, (A-B)/B: 10.7%
  Wet Weight, Mean Increase (A-B): 39.4 g
[1]; intramammary infusion, pregnant beef cows
  Plasma levels of bIGF-I during the study: did not increase significantly
[1]; pooled original study and replication, 25 vs 2.5 micrograms bIGF-I per infusion, Combined
  Growth of quarter-udders combined, Medium vs. Low dose: +25%
[1]; pooled original study and replication, 25 vs 2.5 micrograms bIGF-I per infusion, Controls
  Growth of control quarter-udders, Medium vs. Low dose: +27%
[1]; pooled original study and replication, 25 vs 2.5 micrograms bIGF-I per infusion, Treatment
  Growth of treatment quarter-udders, Medium vs. Low dose: +23.1%
[1]; pooled original study and replication, 250 vs 2.5 micrograms bIGF-I per infusion, Combined
  Growth of quarter-udders combined, High vs. Low dose: +67%
[1]; pooled original study and replication, 250 vs 2.5 micrograms bIGF-I per infusion, Controls
  Growth of control quarter-udders, High vs. Low dose: +71.3%
[1]; pooled original study and replication, 250 vs 2.5 micrograms bIGF-I per infusion, Treatment
  Growth of treatment quarter-udders, High vs. Low dose: +62%
[1]; pooled original study and replication, 250 vs 25 micrograms bIGF-I per infusion, Combined
  Growth of quarter-udders combined, High vs. Medium dose: +33%
[1]; pooled original study and replication, 250 vs 25 micrograms bIGF-I per infusion, Controls
  Growth of control quarter-udders, High vs. Medium dose: +34.4%
[1]; pooled original study and replication, 250 vs 25 micrograms bIGF-I per infusion, Treatment
  Growth of treatment quarter-udders, High vs. Medium dose: +31.5%
[1]; two higher doses (Groups 2-3)
  Growth of the non-infused quarters: substantial growth
[1]; two higher doses (Groups 2-3: 25 and 250 micrograms per infusion)
  Growth of treatment quarters vs. control quarters: did not produce consistently greater growth of treatment quarters vs. control quarters
[2]
  Activity relative to the Example 20 hIGF-I: 90-123%

Source: patent US5130300A, “Method for enhancing growth of mammary parenchyma” (Monsanto Company, priority 1987, dated 1992)
